The nature of this data set: Human HepG2 cell viability assay in 384 well format. The class given is toxicity, cell-based. Also on record: dose 125 nL, time 70.5 hour; concentration not given beside the values. The settings on record: HepG2 cells, read-out: Inhibition.

With `CCNC(=O)NC(=O)CNC(C)(CC)c1nccs1` (centres undefined), the cytotoxicity at 70.5 h was -1.38%. With `CC(CC(=O)N1CCC(c2nnc3n2CCC3)CC1)n1cccc1` (centres undefined), the cytotoxicity at 70.5 h is 10.7%. As for `CC(=O)c1c(F)cccc1NC1CCN(C(=O)C2CCCCC2)CC1`, the cytotoxicity at 70.5 h was -2.39%. On to `O=C(NCCSC1CCCC1)c1c(F)cccc1F`, for which the cytotoxicity at 70.5 h is -6.07%.

Consider `COc1ccc(CNC(=O)N2CCOCC2C2CC2)c(C)c1` (centres undefined), for which the cytotoxicity at 70.5 h is -6.07%.

For `CN(Cc1ccccc1OC(F)(F)F)C(=O)C1CC1`, the cytotoxicity at 70.5 h is -7.05%.

Turning to `Cc1ccccc1-n1cnnc1SCC1CCCCO1` (centres undefined), the cytotoxicity at 70.5 h is -9.11%. To `CCOC(=O)C1CCN(Cc2c(O)ccc3oc4c(c23)CCCC4)CC1` belongs 11.2%. Under `Cc1nn(CN(CC(C)C)C2CC2)c(=O)c2noc(C)c12` stands 14.5%; under `O=C(NCC(O)COc1ccccc1)C1(c2ccc(F)cc2)CC1` (centres undefined), -10.3%. For the compound `O=C(NCC(O)COc1cccc(F)c1)c1ccoc1` (centres undefined), the cytotoxicity at 70.5 h was -13.2%. To `CC1COc2ccccc2N1C(=O)c1ccc(=O)n(C)c1` (centres undefined) belongs 22.1%. For the compound `CN(C)C(=O)C(C)(C)c1ccc2c(c1)OCCO2`, the cytotoxicity at 70.5 h was -5.25%. Regarding `O=S(=O)(NCCCN1CC=CC1)c1cncc(Cl)c1`, the cytotoxicity at 70.5 h stood at 29.6%. Turning to `CC(C)(C)Cc1nnc(NCc2ccsc2)o1`, the cytotoxicity at 70.5 h amounted to 28.5%. To `COc1ccnc(N2CCN(C(C)c3nc(C)no3)CC2)n1` (centres undefined) belongs 4.57%.

With `CCn1ncc2c1CCCC2NCc1csc(C(C)C)n1` (centres undefined), the cytotoxicity at 70.5 h was 0.0472%. For the compound `CCCc1cc(N2CCCC2Cn2nc(C)nc2C)n2ncnc2n1` (centres undefined), the cytotoxicity at 70.5 h is -0.261%. Under `CCS(=O)(=O)NCC(=O)N1CC2(CCCC2)c2c(F)cccc21` stands -1.86%. To `COc1cc(F)ccc1N(C)Cc1ccncc1` belongs -1.33%; to `COc1ccc(N(C(=O)Cc2ccc(C)nc2)C(C)C)cc1F`, -5.23%. To `COc1ccc2cc(CN(C)C(C)c3nc(C(C)(C)C)no3)ccc2c1` (centres undefined) belongs -5.37%; to `Cc1cccc(C(=O)Nc2cccc3c2C(=O)NC3)n1`, -5.67%; to `CC(C)NC(=O)CCNC(=O)c1cc(F)ccc1NS(C)(=O)=O`, 15.1%. Turning to `CCOC(=O)c1nc(CN2CCC(NC(=O)C(C)C)CC2)cs1`, the cytotoxicity at 70.5 h was -3.69%. Under `Cc1ccc(NS(C)(=O)=O)c(C(=O)NCCC(=O)NC(C)C)c1` stands -6.46%; under `COc1ccc(N(C(=O)c2ccc(C)nc2)C(C)C)cc1F`, 15.8%; under `Cc1ccnc(N2CCC(NCCOc3ccccc3)CC2)n1`, -4.28%. Turning to `CC(C)(C)C(=O)NCC(=O)NC1CC(c2cccc(Cl)c2)C1` (centres undefined), the cytotoxicity at 70.5 h is -1.37%. As for `CS(=O)(=O)CCC(=O)NC1CC(c2cccc(Cl)c2)C1` (centres undefined), the cytotoxicity at 70.5 h stood at 14.6%. Under `Cc1cc(NCC(=O)N(C)CC(F)(F)F)c(C(N)=O)cc1F` stands 1.83%. To `O=C1CC(CNc2cncc(Cl)n2)c2ccccc2N1` (centres undefined) belongs -2.03%; to `Cc1ccc(N2CCCC(NC(=O)Cc3csc(C)n3)C2=O)cc1` (centres undefined), -0.932%; to `Cc1cc(N2CCC(NCCOc3ccccc3)CC2)nc(C)n1`, 3.15%. To `O=C(Nc1ccccc1OC1CCOC1)c1ccon1` (centres undefined) belongs -1.12%. With `Cc1ncccc1C(=O)Nc1cccc2c1C(=O)NC2`, the cytotoxicity at 70.5 h is -2.21%. To `COCCNC(=O)c1cc(F)ccc1NS(C)(=O)=O` belongs -1.48%; to `CC(c1nc(C2CC2)no1)N(C)Cc1ccc(C#N)cc1` (centres undefined), -1.86%; to `CCOCc1ccccc1NC(=O)NCC(C)(O)c1ccsc1` (centres undefined), -2.17%.

On to `CCN(CC(=O)NC)C(=O)Cc1csc(C(C)C)n1`, for which the cytotoxicity at 70.5 h is -1.76%. On to `CCS(=O)(=O)c1ccc2c(c1)OCCCO2`, for which the cytotoxicity at 70.5 h is 0.078%.

Turning to `N#Cc1cccnc1NC1CCN(c2ccccc2OC(F)F)C1=O` (centres undefined), the cytotoxicity at 70.5 h was found to be 17.8%. To `CS(=O)(=O)CCN(CC1CCCO1)C1CCCC1` (centres undefined) belongs 19.5%. Under `CC(C)c1nnc2n1CCN(C(=O)c1ccc(OCC3CC3)nc1)C2` stands 11%; under `COc1c(CNCC(O)COc2ccc3c(c2)OCO3)c(C)nn1C` (centres undefined), 14.9%; under `Nc1nccnc1C(=O)N1CCN(Cc2cccc3ccccc23)CC1`, 28%. Consider `CN(C)c1cc(C(=O)NCC2(c3cccc(F)c3)CCOCC2)ccn1`, for which the cytotoxicity at 70.5 h is -4.88%.

For `Cc1nc(CNCC(O)COc2ccc3c(c2)OCO3)cs1` (centres undefined), the cytotoxicity at 70.5 h was 1.9%. For the compound `Cn1cccc(NC(=O)COc2ccc(Br)cc2)c1=O`, the cytotoxicity at 70.5 h turned out to be 21.8%.

On to `CN(C)S(=O)(=O)Nc1ccc(-n2nccc2C(F)(F)F)cc1`, for which the cytotoxicity at 70.5 h is 6.87%. With `Nc1nccnc1C(=O)N1CC(OCc2cccc3ccccc23)C1`, the cytotoxicity at 70.5 h amounted to 9.66%.

On to `Cc1nnc2ccc(N3CCC4(CCOC4)C3)nn12` (centres undefined), for which the cytotoxicity at 70.5 h is -3.17%. Under `NS(=O)(=O)CCN1CCOC(c2ccsc2)C1` (centres undefined) stands 1.05%.

As to `O=C1CCC(=O)N1CCN1CCOC(c2ccsc2)C1` (centres undefined), the cytotoxicity at 70.5 h turned out to be 3.03%. With `Cn1cnn(Cc2c(F)cccc2Br)c1=O`, the cytotoxicity at 70.5 h is 24.5%. In the case of `NC(=O)N1CC(OCc2cccc3ccccc23)C1`, the cytotoxicity at 70.5 h was determined as 2.87%.

Regarding `N#Cc1ccccc1N1CCC(Nc2nccnc2C#N)CC1`, the cytotoxicity at 70.5 h was determined as 0.142%. To `CCS(=O)(=O)CCN(CC1CCCO1)C1CCCC1` (centres undefined) belongs -2.46%; to `Cc1cc(CN(C)Cc2ncc(-c3cccs3)o2)no1`, 0.203%.

For `CCc1nc(CN(C)Cc2ncc(-c3cccs3)o2)cs1`, the cytotoxicity at 70.5 h was -1.61%. On to `COC(=O)N1CCC(NC2CCSCC2)C1` (centres undefined), for which the cytotoxicity at 70.5 h is 0.96%. Under `Cc1csc(C2CCCCN2C(=O)CCn2cncn2)n1` (centres undefined) stands 33.9%; under `CC(C)C(=O)NCCNC(=O)C(C)OCC(F)(F)F` (centres undefined), -8.9%. Turning to `O=C(NCC(O)c1ccccc1C(F)(F)F)c1cccnc1` (centres undefined), the cytotoxicity at 70.5 h was -11%. Turning to `CCN(CC)Cc1ccc(C(=O)NC2CCc3ccccc32)o1` (centres undefined), the cytotoxicity at 70.5 h worked out at 21.6%. Under `CC(=O)N1Cc2ccccc2CC1C(=O)Nc1ccc(C)cn1` (centres undefined) stands -15.7%; under `CS(=O)(=O)N1CCN(c2cc(N3CCCC3CO)ncn2)CC1` (centres undefined), -7.63%. Take `O=C(CN1CCCC(c2ccn[nH]2)C1)N1CCCc2ccccc21` (centres undefined): the cytotoxicity at 70.5 h was determined as 15.3%. Under `CN(C)CC(=O)N1CCN(c2cc(N3CCCC3CO)ncn2)CC1` (centres undefined) stands -6.08%. To `CSc1nsc(NC(=O)N(C)Cc2ccc3c(c2)OCO3)n1` belongs -8.04%; to `COC(=O)c1ccc(CCn2cnc(C#N)n2)cc1`, 13.2%. To `Cc1cc(S(=O)(=O)N(CCO)C2CC2)ccc1F` belongs -2.56%. Consider `CS(=O)(=O)CC1(CNc2c(C#N)cnc3ccc(Cl)cc23)CC1`, for which the cytotoxicity at 70.5 h was -5.19%.

As to `CN(C)CCC1CCN(c2cc(N3CCCC3CO)ncn2)CC1` (centres undefined), the cytotoxicity at 70.5 h is 11.7%.

Regarding `CCC1COCCN1C(=O)NCc1nccn1CC(C)C` (centres undefined), the cytotoxicity at 70.5 h is -15.6%. To `CCC1COCCN1C(=O)NCc1nccn1CCc1ccccc1` (centres undefined) belongs -5.72%; to `O=C(NCc1nccs1)N1CCOC(c2ccccc2Cl)C1` (centres undefined), 10.9%; to `CN(Cc1cccc(OC(F)(F)F)c1)Cc1cnn(C)c1`, -12.4%.

As to `Cc1cc(C2CCCN(CCC(=O)N3CCc4ccccc43)C2)n[nH]1` (centres undefined), the cytotoxicity at 70.5 h is -4.23%. In the case of `CC(C)N(Cc1ccccn1)C(=O)CCOc1cccc(F)c1`, the cytotoxicity at 70.5 h was -4.61%. To `CCc1ccc(CCn2cnc(C#N)n2)cc1` belongs -7.83%. To `CN(C)C(=O)N1CCN(c2cc(N3CCCC3CO)ncn2)CC1` (centres undefined) belongs -4.25%; to `CC(SCC(=O)N(C)CC(=O)NC1CC1)c1cc(F)ccc1F` (centres undefined), 14.2%. Under `Cc1nc(CN(CCS(C)(=O)=O)C(C)(C)C)no1` stands 42.5%; under `O=C(COCC1CC1)Nc1ncccc1I`, 2.42%. On to `CCOCCN1CCN(c2ccc(CN(C)C)cn2)CC1`, for which the cytotoxicity at 70.5 h was -5.47%. To `COc1ccc(C(NCc2cccc(C#N)c2)C(C)C)cc1` (centres undefined) belongs 5.48%; to `O=C(COCC1CC1)Nc1ncccc1O`, -6.89%; to `CC1CCN(C(=O)C(C)N2CCN(c3nccs3)CC2)CC1` (centres undefined), -7%. Under `Cc1cc(CN(C)C(=O)C2CC(c3cccc(F)c3)=NO2)no1` (centres undefined) stands -10.1%; under `O=C(Nc1ccc2c(c1)C(=O)NC2)c1ccc(S(=O)(=O)C(F)(F)F)cc1`, -2.46%; under `CCCNC(=O)C1CCN(CC(O)c2ccccc2C(F)(F)F)CC1` (centres undefined), 0.668%. With `CCOc1ncccc1NC(=O)N1CCC(n2cncn2)CC1`, the cytotoxicity at 70.5 h is -8.07%. Take `CS(=O)(=O)Nc1cccc(C(=O)Nc2ccc3c(c2)C(=O)NC3)c1`: the cytotoxicity at 70.5 h is -6.35%. Under `CC(=O)NCc1ccc(C(=O)Nc2ccc3c(c2)C(=O)NC3)cc1` stands -2.55%; under `O=C1C(n2nnc(-c3ccsc3)n2)CCN1CC(F)(F)F` (centres undefined), -11.5%.

`CCn1cc(S(=O)(=O)N2CCCC2c2ccc(C)o2)cn1` (centres undefined): the cytotoxicity at 70.5 h came to 2.79%. Under `CC(c1ccc(-n2cncn2)cc1)N(C)Cc1ccccn1` (centres undefined) stands -7.98%. Under `COCCCn1ccc(NCc2ccc(NC(C)=O)cc2)n1` stands -6.7%. On to `CC(=O)Nc1ccc(CNc2ccn(Cc3ccccc3)n2)cc1`, for which the cytotoxicity at 70.5 h is -3.05%.

`CN(Cc1cccc(C#N)c1)C(=O)C1CC(c2cccc(F)c2)=NO1` (centres undefined): the cytotoxicity at 70.5 h was -6.75%. Consider `CC(OCC1CC1)C(=O)Nc1ncccc1I` (centres undefined), for which the cytotoxicity at 70.5 h is -6.4%. To `Cc1cc(C)n(-c2ccc(C(=O)NCC(c3cccs3)N(C)C)cc2)n1` (centres undefined) belongs -4.5%; to `CCCN(CCC)C(=O)CN(C)Cc1cnc(C)s1`, 3.46%.

The values above are taken from ChEMBL document CHEMBL3507680, “University of Dundee, Gates Library screen for HepG2 cell viability”.
